{"source": "patent US20120108665A1", "about": "“METHODS AND COMPOSITIONS FOR TREATING OPHTHALMIC CONDITIONS” (REVISION THERAPEUTICS, INC., priority 2009, published 2012)", "key": {"Ins2Akita/+ mice": {"system": "Ins2Akita/+ mice", "assay": "Serum glucose (hyperglycemia) monitoring in Ins2Akita/+ diabetic mice fed HPR-supplemented diet", "assay_type": "in vivo, mouse", "conditions": "diet containing HPR 0.1% w/w ad libitum, glucose at 7-day intervals (FIG. 1B)", "description": "(§1) Ins2Akita littermates (aged 2-5 months) were divided into two groups. One group received a specialized rodent diet containing HPR (0.1%, w/w). The second group received a rodent chow which was not supplemented with HPR. Mice ingested these diets ad libitum for 3 months (except where indicated). Serum retinol and glucose levels were regularly monitored throughout the treatment period. At the end of the treatment period, the mice were euthanized and eyecups were prepared for biochemical and immunohistochemical analyses.\n(§2) Serum levels of retinol at day 30 (panel A) and glucose at 7-day intervals (panel B) are shown. The dashed line in panel B indicates mean glucose levels in wild-type mice."}, "serum RBP-retinol": {"system": "serum RBP-retinol", "assay": "Serum retinol monitoring in Ins2Akita/+ diabetic mice fed HPR-supplemented diet", "assay_type": "in vivo, mouse", "conditions": "diet containing HPR 0.1% w/w ad libitum, retinol at day 30 (FIG. 1A)", "description": "as §1, §2"}, "wild type Balb/c mice": {"system": "wild type Balb/c mice", "assay": "In vivo corneal micropocket assay (bFGF pellets)", "set-up": "species or system mouse", "conditions": "0.1% (w/w) HPR chow 8 weeks, bFGF ~80 ng/pellet, assessed 5 days later, FITC-dextran (FIG. 7)", "excerpt": "(§3) We set out to directly test the angiogenic properties of HPR in three different models of ocular angiogenesis. In the first, we induced angiogenesis in vitro by exposing primary human retinal microvascular endothelial cells to growth factors in the tube formation assay. Second, we utilized slow release pellets containing growth factor to induce angiogenesis in the corneal micropocket assay. Next, we looked at the effect of HPR treatment on angiogenesis in a transgenic animal model of early-onset retinal neovascularization, the very-low-density lipoprotein receptor (VLDLR) knockout mouse (vldlr−/−).\nAt the end of this period, standardized slow release pellets containing bFGF (˜80 ng/pellet) were surgically inserted into the normally avascular corneas of the mice in the study. Blank pellets were implanted in the left eye. Vessel formation was assessed 5 days later when the mice were perfused with FITC-dextran and the eyes were enucleated and photographed. FIG. 7: Bright field (A-F) and fluorescence (G-L) images showing vessel growth (arrows) and the approximate location of the pellets (ovals)."}, "[1]": {"system": "advanced glycation end products (AGEs)", "assay": "AGE immunoreactivity in retina tissue sections of Ins2Akita/+ mice", "assay_type": "in vivo, mouse", "conditions": "HPR diet 0.1% w/w, 3 months (FIG. 3)", "description": "as §1"}, "VLDLR-/- knockout mice": {"system": "VLDLR-/- knockout mice", "assay": "Retinal vascular leakage in VLDLR-/- knockout mice (retinal neovascularization model)", "assay_type": "in vivo, mouse", "conditions": "0.1% HPR (w/w) chow 8 weeks, retinal flat mounts after FITC-dextran perfusion (FIG. 8)", "excerpt": "as §3\nVLDLR^−/− mice were fed either control or 0.1% HPR (w/w)-supplemented chow ad libitum for 8 weeks. The extent of retinal leakage was then assessed in retinal flat mounts after FITC-dextran perfusion."}, "phosphorylated p38 MAPK": {"system": "phosphorylated p38 MAPK", "assay": "Phosphorylated p38 MAPK immunoreactivity in RPE of Ins2Akita/+ mice", "assay_type": "in vivo, mouse", "conditions": "HPR diet 0.1% w/w, 3 months (FIG. 4)", "description": "as §1\nTissue sections from these mice were probed for phosphorylated p38 MAPK, a mediator of apoptotic cell death."}, "ganglion cell layer": {"system": "ganglion cell layer", "assay": "Retinal histology (toludine blue staining) of ganglion cell layer in Ins2Akita/+ mice", "assay_type": "in vivo, mouse", "conditions": "HPR diet 0.1% w/w", "description": "as §1\n(§4) Panels A and D are from Ins2Akita/+ mice fed the control diet. Panels B and E are from Ins2/Akita/+ mice fed the HPR-supplemented diet. Panels C and E are from age-matched wild-type mice. Arrows in panels A and D show disruption of the GCL and RAGE immunoreactivity."}, "RAGE": {"system": "RAGE", "assay": "RAGE immunoreactivity in retina tissue sections of Ins2Akita/+ mice", "assay_type": "in vivo, mouse", "conditions": "HPR diet 0.1% w/w, 3 months (FIG. 2)", "description": "as §1, §4"}, "[2]": {"system": "primary human retinal microvascular endothelial cells", "assay": "In vitro capillary tube formation assay", "assay_type": "cell-based", "conditions": "HPR 10 mM; VEGF 10 ng/ml pretreatment; cells on Cultrex BME in 0.1% FBS (FIG. 6)", "excerpt": "as §3\nIn parallel experiments, cells were pretreated with VEGF (10 ng/ml) and HPR ([…]) respectively. The cells were then plated in 0.1% FBS or 0.1% FBS-[…] HPR."}, "VEGF": {"system": "VEGF", "assay": "VEGF expression in retina of Ins2Akita/+ mice", "assay_type": "in vivo, mouse", "conditions": "HPR diet 0.1% w/w, 3 months (FIG. 5)", "description": "as §1"}}}
{"smiles": "CC1=C(/C=C/C(C)=C/C=C/C(C)=C/C(=O)Nc2ccc(O)cc2)C(C)(C)CCC1", "note": "[HPR, N-(4-hydroxyphenyl)retinamide]", "values": [{"measurement": "effect on hyperglycemia (serum glucose)", "setting": "Ins2Akita/+ mice", "result": "has no effect"}, {"measurement": "serum RBP-retinol", "setting": "serum RBP-retinol", "result": "significantly reduces"}, {"measurement": "bFGF-induced corneal vessel growth (angiogenic response)", "setting": "wild type Balb/c mice", "result": "striking reduction"}, {"measurement": "AGE immunoreactivity in the retina", "setting": "[1]", "result": "significantly reduced"}, {"measurement": "extent of retinal vascular leakage", "setting": "VLDLR-/- knockout mice", "result": "significant reduction"}, {"measurement": "p38 MAPK immunoreactivity in the RPE", "setting": "phosphorylated p38 MAPK", "result": "barely detectable"}, {"measurement": "preservation of ganglion cell layer and inner nuclear layer", "setting": "ganglion cell layer; 3 months (FIG. 5)", "result": "remarkable preservation"}, {"measurement": "integrity of the ganglion cell layer (GCL)", "setting": "ganglion cell layer; 3 months, toludine blue staining (FIG. 2)", "result": "well preserved"}, {"measurement": "RAGE immunoreactivity in the GCL", "setting": "RAGE", "result": "very little"}, {"measurement": "tube formation", "setting": "[2]", "result": "reduced"}, {"measurement": "VEGF expression in all retina sublayers", "setting": "VEGF", "result": "dramatically reduced"}]}
